Laboratory results published in PubChem BioAssay AID1963972 (Molecular Pharmacology Branch, DTP, NCI, 2024).
pIC50: −log10 of the molar value.

Test system: 945468-187-T-J2-PDC spheroids viability
Assay: Anticancer human tumor 945468-187-T-J2-PDC patient-derived rectal carcinoma cell line growth inhibition [PI3K]
Conditions: spheroids with HUVEC and MSC; for pIC50: curve of first compound; for viability, T/C: stronger effect = lower value
Outline: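 Tumor cells grown as multi-cell spheroids with HUVEC endothelial cells and MSC fibroblast-like stroma were treated with targeted agents combined with inavolisib, alpelisib, duvelisib or copanlisib. Doses fell in half-log steps from near clinical Cmax, else from 10 microM. Viability was measured.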

[1] = second compound 0.00316 µM, first compound 0.0316 µM
[2] = second compound 0.00316 µM, first compound 0.1 µM
[3] = second compound 0.00316 µM, first compound 0.316 µM
[4] = second compound 0.00316 µM, first compound 1 µM
[5] = second compound 0.00316 µM, first compound 3.16 µM
[6] = second compound 0.00316 µM, first compound 10 µM
[7] = second compound 0.01 µM, first compound 0.0316 µM
[8] = second compound 0.01 µM, first compound 0.1 µM
[9] = second compound 0.01 µM, first compound 0.316 µM
[10] = second compound 0.01 µM, first compound 1 µM
[11] = second compound 0.01 µM, first compound 3.16 µM
[12] = second compound 0.01 µM, first compound 10 µM
[13] = second compound 0.0316 µM, first compound 0.0316 µM
[14] = second compound 0.0316 µM, first compound 0.1 µM
[15] = second compound 0.0316 µM, first compound 0.316 µM
[16] = second compound 0.0316 µM, first compound 1 µM
[17] = second compound 0.0316 µM, first compound 3.16 µM
[18] = second compound 0.0316 µM, first compound 10 µM
[19] = second compound 0.1 µM, first compound 0.0316 µM
[20] = second compound 0.1 µM, first compound 0.1 µM
[21] = second compound 0.1 µM, first compound 0.316 µM
[22] = second compound 0.1 µM, first compound 1 µM
[23] = second compound 0.1 µM, first compound 3.16 µM
[24] = second compound 0.1 µM, first compound 10 µM
[25] = second compound 0.316 µM, first compound 0.0316 µM
[26] = second compound 0.316 µM, first compound 0.1 µM
[27] = second compound 0.316 µM, first compound 0.316 µM
[28] = second compound 0.316 µM, first compound 1 µM
[29] = second compound 0.316 µM, first compound 3.16 µM
[30] = second compound 0.316 µM, first compound 10 µM
[31] = second compound 1 µM, first compound 0.0316 µM
[32] = second compound 1 µM, first compound 0.1 µM
[33] = second compound 1 µM, first compound 0.316 µM
[34] = second compound 1 µM, first compound 1 µM
[35] = second compound 1 µM, first compound 3.16 µM
[36] = second compound 1 µM, first compound 10 µM
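Further: spheroids exposed to compounds for seven days before reading.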

In the case of CC(Cn1ccc(-c2ccc(C#N)c(Cl)c2)n1)NC(=O)c1cc(C(C)O)[nH]n1 (centres undefined) + CC(Nc1ccc2c(c1)OCCn1cc(N3C(=O)OCC3C(F)F)nc1-2)C(N)=O, the pIC50 (second compound 0.00316 µM) was < 5.00, the pIC50 (second compound 0.01 µM) was < 5.00 and the pIC50 (second compound 0.0316 µM) was < 5.00. For the same compound, the pIC50 (second compound 0.1 µM) was < 5.00, the pIC50 (second compound 0.316 µM) was < 5.00 and the pIC50 (second compound 1 µM) was < 5.00. It also gave a viability, T/C [1] of 98.9%, a viability, T/C [2] of 105% and a viability, T/C [3] of 107%. It also gave a viability, T/C [4] of 75.7%, a viability, T/C [5] of 106% and a viability, T/C [6] of 110%. The viability, T/C [7] was 108%, the viability, T/C [8] was 85.8% and the viability, T/C [9] was 90.5%. For the same compound, the viability, T/C [10] was 96.2%, the viability, T/C [11] was 111% and the viability, T/C [12] was 93.6%. For the same compound, the viability, T/C [13] was 100%, the viability, T/C [14] was 82% and the viability, T/C [15] was 88%. It also gave a viability, T/C [16] of 92%, a viability, T/C [17] of 91.1% and a viability, T/C [18] of 103%. It also gave a viability, T/C [19] of 86.2%, a viability, T/C [20] of 82% and a viability, T/C [21] of 99.1%. The viability, T/C [22] was 80.8%, the viability, T/C [23] was 101% and the viability, T/C [24] was 81.7%. The viability, T/C [25] was 85.2%, the viability, T/C [26] was 73.2% and the viability, T/C [27] was 95.2%. It also gave a viability, T/C [28] of 91.4%, a viability, T/C [29] of 82.7% and a viability, T/C [30] of 82.8%. For the same compound, the viability, T/C [31] was 76.2%, the viability, T/C [32] was 74.8% and the viability, T/C [33] was 68.9%. For the same compound, the viability, T/C [34] was 63.6%, the viability, T/C [35] was 72.3% and the viability, T/C [36] was 71.4%.
With CC1(C)CCC(Nc2ncc(C(F)(F)F)c(-c3c[nH]c4c(P(C)(C)=O)c(C#N)ccc34)n2)CN1 (centres undefined) + CC(Nc1ccc2c(c1)OCCn1cc(N3C(=O)OCC3C(F)F)nc1-2)C(N)=O the pIC50 (second compound 0.00316 µM) was 6.10, the pIC50 (second compound 0.01 µM) was 5.88 and the pIC50 (second compound 0.0316 µM) was 5.68. For the same compound, the pIC50 (second compound 0.1 µM) was 5.97, the pIC50 (second compound 0.316 µM) was 6.05 and the pIC50 (second compound 1 µM) was 5.37. It also gave a viability, T/C [1] of 96%, a viability, T/C [2] of 115% and a viability, T/C [3] of 71.8%. It also gave a viability, T/C [4] of 50.2%, a viability, T/C [5] of 34.2% and a viability, T/C [6] of 49.6%. It also gave a viability, T/C [7] of 91.6%, a viability, T/C [8] of 92.7% and a viability, T/C [9] of 88.8%. For the same compound, the viability, T/C [10] was 52.5%, the viability, T/C [11] was 40.5% and the viability, T/C [12] was 42.7%. It also gave a viability, T/C [13] of 82.2%, a viability, T/C [14] of 98.3% and a viability, T/C [15] of 61.1%. For the same compound, the viability, T/C [16] was 64.3%, the viability, T/C [17] was 42.9% and the viability, T/C [18] was 43.8%. It also gave a viability, T/C [19] of 105%, a viability, T/C [20] of 91% and a viability, T/C [21] of 81%. For the same compound, the viability, T/C [22] was 48.5%, the viability, T/C [23] was 41.8% and the viability, T/C [24] was 51.4%. For the same compound, the viability, T/C [25] was 77.5%, the viability, T/C [26] was 103% and the viability, T/C [27] was 89.3%. It also gave a viability, T/C [28] of 45.8%, a viability, T/C [29] of 39.8% and a viability, T/C [30] of 31.6%. For the same compound, the viability, T/C [31] was 85.3%, the viability, T/C [32] was 76.3% and the viability, T/C [33] was 67.3%. The viability, T/C [34] was 65.7%, the viability, T/C [35] was 54.6% and the viability, T/C [36] was 40.1%.
